Assay results from patent US11896579B2, “Combination drug” (Chugai Seiyaku Kabushiki Kaisha, priority 2015, dated 2024).

Test system: human non-small cell lung cancer cell line NCI-H2228 which is positive for the ALK fusion gene
Assay: NCI-H2228 xenograft tumor volume in SCID mice
Type: in vivo
Conditions: SCID mice with NCI-H2228 transplant; agent alone: bevacizumab 5 mg/kg i.p. once a week; cisplatin 5 mg/kg i.v. once a week; paclitaxel 12.5 mg/kg i.v. once a week; gemcitabine 60 mg/kg i.p. twice a week
Procedure: In the FIGURE, the horizontal axis represents the number of days elapsed after the transplantation of the cells, and the vertical axis represents the tumor volume and the body weight change rate. Control represents control groups to which a solvent is administered and combo represents combined use groups.

Molecule	change in tumor volume during administration alone
N.N.[Cl][Pt][Cl] [cisplatin]	No significant change in tumor volume
Nc1ccn([C@@H]2O[C@H](CO)[C@@H](O)C2(F)F)c(=O)n1 [gemcitabine]	No significant change in tumor volume
CC(=O)O[C@H]1C(=O)[C@@]2(C)[C@H]([C@H](OC(=O)c3ccccc3)[C@]3(O)C[C@H](OC(=O)[C@H](O)[C@@H](NC(=O)c4ccccc4)c4ccccc4)C(C)=C1C3(C)C)[C@]1(OC(C)=O)CO[C@@H]1C[C@@H]2O [paclitaxel]	No significant change in tumor volume
bevacizumab: anti-human VEGF antibody	increases in tumor volume were observed
